# “And” between values parts separate entries of the source, which are not always exact repeats. Identical values can stand only once. Where no end group is shown, it is not given here. Side-chain parts run from the residue outwards. rhodamine‑labelled PEGylated perfluoro‑15‑crown‑5 ether nanoemulsion = not defined here; carboxyfluorescein = N-terminal fluorescence label (CF)
# Key:
# [1] = test system: neutrophils from explanted failing human hearts; experiment: hNPPFC uptake by neutrophils from explanted human hearts, flow cytometry; type: cell-based; conditions: 10 µl hNPPFCs, 30 min, 37 °C
# Procedure: During orthotopic heart-transplant surgery in patients suffering from terminal heart failure, a tissue specimen of about ~5 g was excised from the apex of the failing heart immediately after explantation. Tissues were immediately transferred to iced BIOPS buffer as described previously. For subsequent isolation of immune cells, heart samples were cut into small pieces and digested with the Multi Tissue Dissociation Kit 2 (Miltenyi; ‘adult rat heart’ protocol) by incubating for 40 min at 37 °C with the specified enzyme mix using the 37C_Multi_G program by gentleMACS. Afterward, 7.5 ml DMEM with 20% FCS was added to stop enzymatic digestion. The sample was applied to a 70-µm cell filter and washed with 3 ml DMEM, followed by centrifugation for 5 min at 300g. The supernatant was discarded, and cells were resuspended in 1 ml DMEM and incubated with 10 µl ^hNPPFCs for 30 min at 37 °C on a vertical shaker. Afterward, cells were washed twice with MACS buffer and stained for CD45, CD11b and CD66b. DAPI staining was performed for exclusion of dead cells. The uptake of ^hNPPFCs into neutrophils (CD45^+CD11b^+CD66b^+) was determined by flow cytometry.
# [2] = Dynamic light scattering and ζ potential of PFCs; type: physicochemical; conditions: panel B raw data, single replicates #1-#6
# Procedure: Dynamic light scattering and the ζ potential were measured as described previously[9],[32] at 25 °C using a Nanotrac Wave II analyzer (Microtrac) driven by Microtrac FLEX Software 3.4.
# Extended Data Fig. 8 Physicochemical properties and cellular uptake of ^hNPPFCs. a, Cellular uptake of ^hNPPFCs by human monocyte subsets and neutrophils: Human immune cells isolated from the blood of healthy volunteers were incubated with ^hNPPFCs. Subsequently, cells were stained with CD11b, CD14 and CD16 to differentiate between neutrophils (red), classical monocytes (gray) and non-classical monocytes (blue) and the cells were analyzed by flow cytometry. The cellular uptake of ^hNPPFCs was determined under unstimulated conditions (top) and after treatment with 1 µg/ml LPS (bottom). b, Physicochemical properties of the generated nanotracers: Characterization of size, size distribution and ζ potential of ^MalPFCs and targeting PFCs (^hNPPFCs, ^ConPFCs) by dynamic light scattering (DLS). The rhodamine fluorescence signal of the PCS was determined by IVIS imaging and the ^19F content by ^19F MRI. c-e, Cryo transmission electron microscopy of the generated nanotracers: c, Cryo transmission electron microscopy (cryo-TEM) of ^hNPPFCs and ^ConPFCs. Graphs: The diameter of the PFCs was determined manually from three images categorized into 25 nm groups. […] Data are derived from three images for ^hNPPFCs and ^ConPFCs each. d, Box plot (box and whiskers; min to max) of the diameter of ^ConPFCs/^hNPPFCs calculated from cryo-TEM images. e, Relative amount of liposomes (%) in individual cryo-TEM images. The number of PFCs and liposomes was manually determined (n = 4/5 images). Red arrows in the cryo-TEM images indicate liposomes. Data are mean values ± SD of n = 5-6 (a), n = 3-6 (b), n = 3 (c), n = 3 (d) and n = 6 (e) independent experiments; *** = p < 0.001, verified by one-way ANOVA (a). Source data
# murine neutrophils [3] = experiment: ROS production of murine neutrophils after mNPPFC injection (dihydroethidium, UPLC); type: in vivo, mouse; conditions: in the presence of the targeting PFCs
# Procedure: […] per kg BW ^mNPPFCs or saline were injected i.v., and, 2 h later, neutrophils were isolated from the bone marrow, and extracellular ROS was measured in the cell supernatant by oxidation of dihydroethidium followed by UPLC analysis.
# A total of 5 × 10^6 human neutrophils were incubated in 10 ml DMEM with or without 1 µg ml^−1 peptide or 50 µl ml^−1 emulsion. At distinct time points, cells were pelleted, and 1 ml of the supernatant was immediately frozen at −80 °C. Subsequently, the amount of ROS was determined by chemiluminescence analysis. […] After centrifugation, 80 µl supernatant was used to determine ROS by UPLC measurement (Waters Acquity Bio H-Class with 2475 FLD Detector). To this end, gradients A and B (0.1% trifluoroacetic acid in 1 l water and acetonitrile, respectively) at a flow rate of 0.26 ml min^−1 at 17 °C were used. Dihydroethidium was excited and detected at 480 nm and 580 nm, respectively.
# (§1) Extended Data Fig. 9 Impact of ^mNPPFCs on murine neutrophils. a, Differentially expressed genes (DEGs) identified by bulk RNA sequencing of murine blood neutrophils after intravenous injection of ^mNPPFCs, ^ConPFCs or NaCl (Ctrl) as control. […] In total 25655 RNA transcripts were analyzed. b, Cell surface expression of CD11b, CD62L, CD63 on blood derived murine neutrophils after intravenous application of NaCl (Ctrl) or ^mNPPFCs. […]
# murine neutrophils [4] = experiment: Migration of murine neutrophils into Matrigel/LPS plug after mNPPFC injection; type: in vivo, mouse; conditions: in the presence of the targeting PFCs
# Procedure: […] per kg BW ^mNPPFCs or saline were injected i.v., and, after 1 h, LPS-doped Matrigel was implanted s.c. into the neck of mice. After 2 h, the Matrigel plug was excised, and infiltrated neutrophils were isolated and stained with anti-CD11b and anti-Ly6G antibodies for flow cytometry.
# A total of 1 × 10^6 isolated human neutrophils were incubated with or without 50 µl ^hNPPFCs for 1 h at 37 °C in 1 ml DMEM. After washing with DMEM, 1 × 10^5 of these cells were placed in a Boyden chamber containing 200 µl DMEM. The lower part of the chamber contained 100 ng ml^−1 IL-8 in 1 ml DMEM. After 1 h in an incubator, the flow through was collected, and the number of neutrophils was counted by flow cytometry. Murine neutrophils were isolated from Matrigel–LPS plugs and stained for Ly6G. Afterward, cells were washed twice, and the number of neutrophils was determined by flow cytometry.
# as §1
Substance,labeling of neutrophils freshly isolated from explanted failing human hearts [1],PDI ([2]; dynamic light scattering),Size ([2]; dynamic light scattering),zeta potential [2],ROS production of murine neutrophils (murine neutrophils [3]),migration of murine neutrophils (murine neutrophils [4])
hNPPFCs: PEGylated rhodamine-labeled perfluorocarbon nanoemulsion coupled with human neutrophil-specific peptide hNP (carboxyfluorescein-DLVTSKLQVGGGC; also: C-terminal Cys coupled via maleimide-PEG2000-DSPE to rhodamine-labelled perfluorocarbon nanoemulsion),could be labeled,0.08 and 0.07,91.7 and 97.8 and 100.7 and 101.3 and 102.8 and 95.3,-30.64 and -34.35 and -35.76 and -32.06 and -35.94 and -33.07,–,–
mNPPFCs: PEGylated rhodamine-labeled perfluoro-15-crown-5 ether nanoemulsion (maleimide PFCs) coupled with murine neutrophil-specific peptide mNP (carboxyfluorescein-DFYKPMPNLRITGGGC([maleimide‑PEG2000‑DSPE-rhodamine‑labelled PEGylated perfluoro‑15‑crown‑5 ether nanoemulsion]); reading uncertain; also: printed as DFYKPMPNLRIT-GGG-C),–,–,–,–,unaltered,unaltered
